Measurements as given in patent US12454564B2, “Compositions and methods for T cell engineering” (Gracell Biotechnologies (Shanghai) Co., Ltd., priority 2018, dated 2025).
Entries after “also recorded” stand apart in the source; their conditions may differ.

Key:
Test in all cases: gRNA knockout efficiency
[1] = system: CD2; assay type: cell-based
[2] = system: TCR
Method: (§1) For gene editing, 3 μg Cas9 protein and 1.5 μg gRNA were mixed in 20 μl and incubated at 37° C. or room temperature for 15 minutes to form ribonucleoprotein (RNP). Then RNP was transfected into T cells by Lonza 4D Nucleofector®. Gene knockout efficiency was determined by the ratio of the cells expressing the protein as detected by flow cytometry (FACS).
First, gRNA sequences targeting the exon of the TCR conserved region were designed at http://crispr.mit.edu, and two gRNA sequences with scores above 80 were selected for higher knockout efficiency. For the gRNA primer, the forward primer comprises a T7 promotor followed by 20 bp of the target sequence, and the reverse primer has 20 bp of the complementary sequence. Plasmids were used as PCR template. After purification, T7-PCR product was further used as the template for MEGAshortscript® T7 kit to obtain RNA. The RNA was purified with a MEGAclear® column and eluted with RNA-free water. Cas9 plasmid was purchased from Addgene.
Meanwhile, the knockout efficiency of the gRNA was analyzed by T7E1, TIDE and flow cytometry.
For gene editing, 3 μg Cas9 protein and 1.5 μg gRNA were mixed in 20 μl and incubated at 37° C. or room temperature for 15 minutes to form ribonucleoprotein (RNP). […] Gene knockout efficiency was determined by the ratio of the cells expressing the protein as detected by flow cytometry.

[3] = system: CD7; conditions: used together with TRAC-gRNA1
Method: as §1
For gene editing, 3 μg Cas9 protein and 1.5 μg gRNA were mixed in 20 μl and incubated at 37° C. or room temperature for 15 minutes to form ribonucleoprotein (RNP). Then RNP was transfected into T cells by Lonza 4D Nucleofector®. Gene knockout efficiency was determined by the ratio of the cells expressing the protein as detected by flow cytometry.

Substance | CD7 knockout efficiency [3] | further results
CD2 gRNA2: gRNA GTGCCACAAAGACCATCAAG (SEQ ID NO 30) (listed as DNA, chemistry not given here) | – | CD2 knockout efficiency [1]: the highest CD2 knockout efficiencies
TRAC-gRNA2: gRNA TCAGGGTTCTGGATATCTGT (SEQ ID NO 21) (listed as DNA, chemistry not given here) | – | knockout efficiency for TCR [2]: high knockout efficiencies
CD7-gRNA1: gRNA GAGGTCAATGTCTACGGCTC (SEQ ID NO 25) (listed as DNA, chemistry not given here) | high knockout efficiencies; also recorded: obviously better | –
CD7-gRNA4: gRNA GGAGCAGGTGATGTTGACGG (SEQ ID NO 28) (listed as DNA, chemistry not given here) | obviously better | –
